Test results: patent publication US20150197497A1, “SELECTIVE INHIBITORS OF HISTONE DEACETYLASE ISOFORM 6 AND METHODS THEREOF” (DANA-FARBER CANCER INSTITUTE, INC., priority 2011, published 2015)

What was measured:
HDAC2 = target: T1, HDAC2 (Homo sapiens, UniProt Q92769); assay: In vitro HDAC enzyme inhibition assay, HDAC2; type: biochemical; settings: for HDAC2/HDAC6 in vitro selectivity: ratio of IC50 for HDAC2 relative to that of HDAC6; for IC50: recombinant full-length HDAC2, substrate MAZ1600 22 μM
T1 construct: Recombinant, full-length HDAC protein (BPS Biosciences) was incubated with fluorophore conjugated substrate; purchased BPS Biosciences
T1 sequence (Q92769 whole entry): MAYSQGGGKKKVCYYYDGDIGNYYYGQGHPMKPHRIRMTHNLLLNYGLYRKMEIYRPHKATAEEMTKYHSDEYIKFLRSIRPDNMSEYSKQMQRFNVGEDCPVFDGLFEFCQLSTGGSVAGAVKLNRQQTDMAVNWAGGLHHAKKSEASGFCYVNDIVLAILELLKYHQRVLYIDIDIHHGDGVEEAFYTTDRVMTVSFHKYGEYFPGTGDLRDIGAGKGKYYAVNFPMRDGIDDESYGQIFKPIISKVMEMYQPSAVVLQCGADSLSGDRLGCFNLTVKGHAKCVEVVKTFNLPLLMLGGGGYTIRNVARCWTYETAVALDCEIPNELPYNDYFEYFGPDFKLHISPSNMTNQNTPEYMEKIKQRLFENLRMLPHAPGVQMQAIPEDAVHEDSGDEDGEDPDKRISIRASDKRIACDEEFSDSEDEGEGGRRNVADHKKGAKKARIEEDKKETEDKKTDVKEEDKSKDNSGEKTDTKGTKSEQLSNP
Method: (§1) In vitro Histone Deacetylase enzyme assays were performed using Class I (isoforms: HDAC1, HDAC2, HDAC3 and HDAC8), class IIa (isoforms: HDAC4, HDAC5, HDAC7 and HDAC9) and class IIb (isoform HDAC6).
(§2) HDAC activities were determined in vitro with an optimized homogenous assay performed in a 384-well plate. Recombinant, full-length HDAC protein (BPS Biosciences) was incubated with fluorophore conjugated substrate, MAZ1600 and MAZ1675, at Km=[S]. […] Reactions were performed in assay buffer (50 mM HEPES, 100 mM KCl, 0.001% Tween-20, 0.05% BSA, 200 μM tris(2-carboxyethyl)phosphine (TCEP), pH 7.4) and followed for fluorogenic release of 7-amino-4-methylcoumarin from substrate upon deacetylase and trypsin enzymatic activity. Fluorescence measurements were obtained every five minutes using a multilabel plate reader and plate-stacker (Envision; Perkin-Elmer). Each plate was analyzed by plate repeat, and the first derivative within the linear range was imported into analytical software (Spotfire DecisionSite and GraphPad Prism). Replicate experimental data from incubations with inhibitor were normalized to controls.

HDAC1 = target: T2, HDAC1 (Homo sapiens, UniProt Q13547); assay: In vitro HDAC enzyme inhibition assay, HDAC1; type: biochemical; settings: for HDAC1/HDAC6 in vitro selectivity: ratio of IC50 for HDAC1 relative to that of HDAC6; for IC50: recombinant full-length HDAC1, substrate MAZ1600 21 μM
T2 construct: Recombinant, full-length HDAC protein (BPS Biosciences) was incubated with fluorophore conjugated substrate; purchased BPS Biosciences
T2 sequence (Q13547 whole entry): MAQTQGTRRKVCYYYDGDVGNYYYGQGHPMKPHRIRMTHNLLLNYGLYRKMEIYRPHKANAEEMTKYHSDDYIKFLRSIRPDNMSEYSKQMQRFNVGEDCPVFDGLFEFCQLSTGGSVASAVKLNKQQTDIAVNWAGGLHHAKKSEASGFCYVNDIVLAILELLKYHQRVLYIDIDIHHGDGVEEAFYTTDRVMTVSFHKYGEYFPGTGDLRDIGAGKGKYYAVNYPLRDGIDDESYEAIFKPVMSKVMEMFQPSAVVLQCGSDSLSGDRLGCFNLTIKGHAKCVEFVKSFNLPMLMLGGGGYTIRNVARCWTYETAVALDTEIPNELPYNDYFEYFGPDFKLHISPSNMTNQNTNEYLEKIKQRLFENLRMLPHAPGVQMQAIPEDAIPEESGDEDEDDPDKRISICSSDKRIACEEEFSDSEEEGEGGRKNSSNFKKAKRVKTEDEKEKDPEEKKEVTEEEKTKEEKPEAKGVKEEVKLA
Method: as §1, §2

HDAC3 = target: T3, HDAC3 (Homo sapiens, UniProt O15379); assay: In vitro HDAC enzyme inhibition assay, HDAC3; type: biochemical; settings: for HDAC3/HDAC6 in vitro selectivity: ratio of IC50 for HDAC3 relative to that of HDAC6; for IC50: recombinant full-length HDAC3, substrate MAZ1600 9 μM
T3 construct: Recombinant, full-length HDAC protein (BPS Biosciences) was incubated with fluorophore conjugated substrate; purchased BPS Biosciences
T3 sequence (O15379 whole entry): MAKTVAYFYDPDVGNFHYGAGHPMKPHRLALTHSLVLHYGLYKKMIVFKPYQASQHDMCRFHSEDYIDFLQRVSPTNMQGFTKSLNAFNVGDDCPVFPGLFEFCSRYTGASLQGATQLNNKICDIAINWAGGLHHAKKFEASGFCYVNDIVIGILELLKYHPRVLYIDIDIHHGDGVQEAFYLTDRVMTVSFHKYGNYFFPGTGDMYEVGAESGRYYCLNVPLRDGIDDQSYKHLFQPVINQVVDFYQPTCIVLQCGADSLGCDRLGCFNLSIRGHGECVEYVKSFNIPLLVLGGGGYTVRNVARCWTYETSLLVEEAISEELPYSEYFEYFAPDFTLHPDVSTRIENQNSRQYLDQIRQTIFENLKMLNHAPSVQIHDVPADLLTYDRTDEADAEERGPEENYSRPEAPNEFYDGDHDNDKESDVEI
T3 sequence (Q9Y618 395-489 partner limits assumed): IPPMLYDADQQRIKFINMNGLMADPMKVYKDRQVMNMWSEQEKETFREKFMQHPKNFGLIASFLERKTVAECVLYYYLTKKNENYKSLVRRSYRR
Method: as §1, §2

HDAC4 = target: T4, HDAC4 (Homo sapiens, UniProt P56524); assay: In vitro HDAC enzyme inhibition assay, HDAC4; type: biochemical; settings: for HDAC4/HDAC6 in vitro selectivity: ratio of IC50 for HDAC4 relative to that of HDAC6; for IC50: recombinant full-length HDAC4, substrate MAZ1675 10 μM
T4 construct: Recombinant, full-length HDAC protein (BPS Biosciences) was incubated with fluorophore conjugated substrate; purchased BPS Biosciences
T4 sequence (P56524 whole entry): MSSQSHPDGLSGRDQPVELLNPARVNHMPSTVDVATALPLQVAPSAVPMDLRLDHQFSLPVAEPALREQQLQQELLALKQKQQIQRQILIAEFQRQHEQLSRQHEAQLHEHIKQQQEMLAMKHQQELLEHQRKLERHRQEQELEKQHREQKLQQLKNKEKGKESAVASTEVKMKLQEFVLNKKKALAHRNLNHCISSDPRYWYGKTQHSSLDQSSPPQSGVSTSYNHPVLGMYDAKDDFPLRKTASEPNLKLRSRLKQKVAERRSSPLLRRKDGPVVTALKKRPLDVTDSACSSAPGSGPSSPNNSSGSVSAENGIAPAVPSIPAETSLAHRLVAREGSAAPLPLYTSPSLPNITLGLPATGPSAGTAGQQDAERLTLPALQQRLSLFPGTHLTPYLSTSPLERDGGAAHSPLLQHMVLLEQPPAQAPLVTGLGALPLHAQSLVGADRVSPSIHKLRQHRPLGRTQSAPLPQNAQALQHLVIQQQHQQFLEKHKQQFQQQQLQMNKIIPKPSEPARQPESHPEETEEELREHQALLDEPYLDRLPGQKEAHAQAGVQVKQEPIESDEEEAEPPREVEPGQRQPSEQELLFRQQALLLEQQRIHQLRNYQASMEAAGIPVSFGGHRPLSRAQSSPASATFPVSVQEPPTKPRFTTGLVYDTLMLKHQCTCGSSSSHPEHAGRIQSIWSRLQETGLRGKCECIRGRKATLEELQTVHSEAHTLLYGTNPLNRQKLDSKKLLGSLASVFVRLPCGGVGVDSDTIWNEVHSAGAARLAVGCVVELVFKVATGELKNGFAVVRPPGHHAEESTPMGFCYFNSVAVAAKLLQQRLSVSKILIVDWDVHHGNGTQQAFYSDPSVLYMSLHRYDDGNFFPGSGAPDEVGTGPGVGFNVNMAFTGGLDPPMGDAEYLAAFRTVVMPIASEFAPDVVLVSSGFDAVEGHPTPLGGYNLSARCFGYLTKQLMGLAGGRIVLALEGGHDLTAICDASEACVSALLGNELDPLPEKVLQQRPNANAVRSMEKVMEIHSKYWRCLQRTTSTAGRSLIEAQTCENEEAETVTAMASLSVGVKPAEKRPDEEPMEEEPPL
Method: as §1, §2

HDAC8 = target: T5, HDAC8 (Homo sapiens, UniProt Q9BY41); assay: In vitro HDAC enzyme inhibition assay, HDAC8; type: biochemical; settings: for HDAC8/HDAC6 in vitro selectivity: ratio of IC50 for HDAC8 relative to that of HDAC6; for IC50: recombinant full-length HDAC8, substrate MAZ1675 282 μM
T5 construct: Recombinant, full-length HDAC protein (BPS Biosciences) was incubated with fluorophore conjugated substrate; purchased BPS Biosciences
T5 sequence (Q9BY41 1-377): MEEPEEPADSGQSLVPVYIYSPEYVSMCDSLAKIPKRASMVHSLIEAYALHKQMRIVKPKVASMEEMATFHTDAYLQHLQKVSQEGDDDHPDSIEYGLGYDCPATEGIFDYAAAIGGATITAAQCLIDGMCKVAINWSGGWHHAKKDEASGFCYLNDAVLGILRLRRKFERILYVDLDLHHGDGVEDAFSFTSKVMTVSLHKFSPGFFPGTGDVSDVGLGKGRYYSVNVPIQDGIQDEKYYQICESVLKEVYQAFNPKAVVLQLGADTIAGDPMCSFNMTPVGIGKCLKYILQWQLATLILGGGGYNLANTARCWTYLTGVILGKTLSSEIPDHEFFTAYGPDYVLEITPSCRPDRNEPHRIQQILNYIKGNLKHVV
Method: as §1, §2

acetylated tubulin = assay: High-content image analysis of induction of acetylated tubulin in A549 cells; settings: for EC50: Homo sapiens, A549, 8 h, read-out: EC50 for half-maximal induction of acetylated tubulin (AcTubulin); for AcHistone/AcTubulin in cell selectivity toward HDAC6: ratio of EC50 acetylated histone to EC50 acetylated tubulin
Method: Cells were treated with each test HDACi compound with an automated pin transfer instrument (Janus, Perkin Elmer) and incubated for 8 hours. […] Fixation solution was aspirated and 90 μL of washing solution (0.1% Triton X-100 in PBS) was added prior to 10 minute incubation at 4° C. Washing solution was aspirated and cells were incubated at 4° C. for about 1 hour in blocking solution (0.1% Triton X-100+2% BSA in PBS). Washing solution was aspirated, and cells were incubated for about 1 hour at 4° C. in primary antibody for acetylated-tubulin (Sigma T7451) and acetylated-histone (Cell Signaling #9441L) at a 1:1000 dilution in blocking solution. Primary antibody solution was aspirated, and cells were washed three times in 90 μL of washing solution. […] Secondary antibody and nuclear staining solution was aspirated and cells were washed three times in 90 μL of washing solution. After the third wash, 50 μL of PBS was added to each well. Image acquisition was done on a high content imaging microscope (ImageXpress Micro, Molecular Devices), and image analysis (MetaXpress, Molecular Devices) was performed to obtain average acetylated-tubulin and acetylated-histone signal per cell based on treatment. Replicate experimental data from incubations with inhibitor were normalized to DMSO controls.

| HDAC2/HDAC6 in vitro selectivity (HDAC2) | IC50 (HDAC2) [nM] | HDAC1/HDAC6 in vitro selectivity (HDAC1) | IC50 (HDAC1) [nM] | HDAC3/HDAC6 in vitro selectivity (HDAC3) | IC50 (HDAC3) [nM] | HDAC4/HDAC6 in vitro selectivity (HDAC4) | IC50 (HDAC4) [nM] | HDAC8/HDAC6 in vitro selectivity (HDAC8) | IC50 (HDAC8) [nM] | EC50 (acetylated tubulin) [nM] | Compound | levels of acetylated tubulin, dose response (in words) (acetylated tubulin; A549 cells, FIG. 11) | AcHistone/AcTubulin in cell selectivity toward HDAC6 (acetylated tubulin; A549 cells) | selectivity toward HDAC6 compared to HDAC4 (in words) (HDAC4; tested in vitro) | selectivity toward HDAC6 compared to HDAC8 (in words) (HDAC8; tested in vitro) |
| --- | --- | --- | --- | --- | --- | --- | --- | --- | --- | --- | --- | --- | --- | --- | --- |
| 259 | 300 | 343 | 398 | 1096 | 1270 | 1188 | 1380 | 1240 | 1440 | 275 | O=C(NO)c1ccc(Cn2c(C(F)(F)F)nc3cc(Cl)ccc32)cc1 [A4, 4-((5-chloro-2-(trifluoromethyl)-1H-benzo[d]imidazol-1-yl)methyl)-N-hydroxybenzamide] | dose-dependent increase | 54.11 | – | – |
| 4997 | 14.3 | 4622 | 13.2 | 6310 | 18.1 | 412836 | 1180 | 120780 | 346 | 95.3 | Cc1ccc2c(c1)[nH]c(=O)n2Cc1ccc(C(=O)NO)cc1 [B2, N-hydroxy-4-((5-methyl-2-oxo-2,3-dihydro-1H-benzo[d]imidazol-1-yl)methyl)benzamide] | – | 2.402 | exceptionally high selectivity (Inhibitors with in vitro selectivity values for HDAC6 of at least 30,000 are considered to have exceptionally high selectivity toward HDAC6) | exceptionally high selectivity (Inhibitors with in vitro selectivity values for HDAC6 of at least 30,000 are considered to have exceptionally high selectivity toward HDAC6) |
